# According to patent US8809389B2, “Substituted alkynyl phenoxy compounds as new synergists in pesticidal compositions” (Endura S.p.A., priority 2009, dated 2014):
# Tests used:
# [1] = system: P450 enzymes (oxidases) of pollen beetle homogenate; assay: Oxidase assay: 7-ethoxycoumarin O-deethylation inhibition in pollen beetle homogenate; assay type: biochemical, Meligethes aeneus; conditions: 3 μl of 10 mM compound, enzyme plus acetone = 100
# Description: The ability of the novel compositions comprising the synergists of Formula (I) to inhibit P450 enzymes, a major mechanism conferring resistance to xenobiotics, was measured using pollen beetle homogenate.
# Approximately 50 non-sexed adult pollen beetle from each population were homogenised on ice in 1 ml 0.1 M sodium phosphate buffer, pH 7.6, containing, 1 mM EDTA, 1 mM DTT, 1 mM PTU, 1 mM PMSF and centrifuged at 10 000×g for 10 min. The resulting supernatant was used as the enzyme source.
# The O-deethylation inhibition by compounds of Example 2 or 3 was measured using 7-ethoxycoumarin (7-EC) according to Ullrich and Weber (Ullrich V and Weber P, The O-dealkylation of 7-ethoxycoumarin by liver microsomes. Z Physiol Chem 353: 1171-1177 (1972)) and adapted to the microplate format as described by DeSousa (De Sousa G, Cuany A, Brun A, Amichot M, Rahmani R, Berge J B, A microfluorometric method for measuring ethoxycoumarin-O-deethylase activity on individual Drosophila melanogaster abdomens: interest for screening resistance in insect populations Analyt. Biochem 229: 86-91 (1995)). Briefly, 7-EC was dissolved in ethanol to make a 20 mM stock solution and diluted by the addition of 0.1 M, pH 7.8 sodium phosphate buffer to give a concentration of 0.5 mM. Fifty microliters of pollen beetle enzyme were added to separate wells of a microplate, followed by the addition of 3 μl 10 mM of either compounds of Example 2 or 3 or acetone only. After 10 min incubation in room temperature, 80 μl 0.5 mM 7-EC was added following by another 5 min at 30° C. The reaction initiated by the addition of 10 μl 9.6 mM NADPH in 0.1 M sodium phosphate, pH 7.8. Enzyme activity was measured in a Victor^2 1420 multilabel counter (Wallac, Milton Keynes, UK) for 60 min with readings taken every 5 min, using an excitation wavelength of 370 nm and an emission wavelength of 460 nm. All assays were performed in triplicate.
# The ability of the composition comprising the compounds of Examples 2 and 3 to inhibit oxidases derived from the 3 different pollen beetle populations is presented in Table 7.
# [2] = system: pollen beetle, Meligethes aeneus; assay: Discriminating dose bioassay: α-cypermethrin in mixture with synergist; assay type: in vivo; conditions: for % Mortality: 24 h
# Description: Two pyrethroid resistant populations originating from two different areas in Poland ‘Rogalin'and lebork’ were collected in July 2008. A putative susceptible population, UK population, was also collected in July 2008 in Hertfordshire, UK. All populations were collected from oilseed rape contained adults only and were kept at room temperature before assays were performed.
# Bioassays incorporating the compounds (Compound of Example 2 and Compound of Example 3) dissolved in acetone, were carried out using a diagnostic concentration of α-cypermethrin derived from the above full dose response bioassays in a mixture of 0.01 g L^−1 of the compounds. The concentration of α-cypermethrin used for the discriminating dose bioassays was 0.3 ppm α-cypermethrin for the two polish populations, Rogalin and Lebork and 0.03 ppm α-cypermethrin for UK population. Vials treated with the compounds only, dissolved in acetone and acetone only were used as controls. Ten to 15 replicates were used for each treatment depending on insect numbers within the population. Compounds concentrations chosen conferred no mortality in preliminary bioassays.
# Treated vials including the pollen beetles were stored in constant environment facilities at 18±2° C. and 16L: 8D. All bioassays were scored at an endpoint of 24 h after exposure to the insecticide. Insects incapable of coordinated movement (after gentle touching with a pencil brush if necessary) were scored as dead.
# [3] = target: T1, purified resistance-associated esterase (E4) (Myzus persicae, UniProt P35501); assay: Esterase interference assay (indirect determination of esterase inhibition); assay type: biochemical; conditions: no esterase = 0%, uninhibited E4 = 100%
# T1 construct: 5 g of aphids (stored at −20° C.) were homogenised in 0.02 M phosphate buffer pH 7.0; from tissue; host or cells: whole Myzus persicae aphids, clone 794JZ; homogenate purified over G-25 and DEAE Sepharose Fast Flow
# T1 sequence (P35501 24-552): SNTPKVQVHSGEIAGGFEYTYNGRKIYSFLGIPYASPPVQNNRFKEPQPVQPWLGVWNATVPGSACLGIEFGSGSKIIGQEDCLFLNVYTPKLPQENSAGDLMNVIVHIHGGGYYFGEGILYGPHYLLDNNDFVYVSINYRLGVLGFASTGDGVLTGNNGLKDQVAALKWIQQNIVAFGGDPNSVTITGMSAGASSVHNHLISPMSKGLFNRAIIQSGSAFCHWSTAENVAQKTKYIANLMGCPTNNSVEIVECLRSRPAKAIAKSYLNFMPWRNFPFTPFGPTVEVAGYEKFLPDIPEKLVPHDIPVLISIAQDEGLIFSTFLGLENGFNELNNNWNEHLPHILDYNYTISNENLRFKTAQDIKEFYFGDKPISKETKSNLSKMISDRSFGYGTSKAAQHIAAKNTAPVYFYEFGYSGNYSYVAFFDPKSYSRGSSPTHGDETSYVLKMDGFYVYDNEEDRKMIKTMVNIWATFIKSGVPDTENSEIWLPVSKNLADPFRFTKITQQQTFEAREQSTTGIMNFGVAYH
# Excerpt: Measuring the in vitro inhibition is not straight forward, as synergists may bind to a site other than the active site.
# The esterase used was the well-characterised resistance associated esterase purified from M. persicae, E4, (aphid clone: 794JZ) as per Devonshire (1977) with some modifications(Devonshire A L, The properties of a carboxylesterase from the peach-potato aphid, Myzus persicae (Sulz.) and its role in conferring insecticide resistance. Biochem J 167: 675-683 (1977)). Briefly, 5 g of aphids (stored at −20° C.) were homogenised in 0.02 M phosphate buffer pH 7.0 and centrifuged at 20 000 g for 10 min. The supernatant was passed through a G-25 column using 0.02M Tris/HCl, pH 8.5 buffer. Unretarded fractions containing esterase activity were further chromatographed through DEAF Sepharose Fast Flow (Amersham Biosciences) and eluted with a linear 0-0.35 M NaCl gradient in 500 ml of Tris/HCl as above. Fractions containing carboxylesterase activity in the form of E4 were concentrated, desalted, and buffer exchanged to 0.02 M phosphate pH 7.0 for storage.
# Interactions of the purified resistance-associated esterase (E4) with Compound of Example 2, Compound of Example 3, Compound of Example 4, Compound of Example 9 and Compound of Example 11 were performed using the ‘esterase interference assay’, as described by Khot et al., with some modifications. Devonshire A L, The properties of a carboxylesterase from the peach-potato aphid, Myzus persicae (Sulz.) and its role in conferring insecticide resistance. Biochem J 167: 675-683 (1977)). Briefly, stock solutions of novel synergists (3 mM in acetone) were pre-incubated with pure E4, to give a final concentration of 0.03 mM, for 16 h at 4° C. Aliquots (15 μl ) of E4, E4+Compound of Example 2, E4+Compound of Example 3, E4+Compound of Example 4, E4+Compound of Example 9 and E4+Compound of Example 11 were incubated for 1 h with 60 μl of serial dilutions of azamethiphos in 0.02M phosphate buffer, pH 7, in separate wells of a NUNC microplate. Aliquots (25 p1) of house fly head homogenate (source of AChE) were added to each well and incubated for 15 minutes at room temperature. E4 in acetone and buffer only served as the positive and the negative controls respectively. AChE activity was measured at 405 nm using a Tmax kinetic microplate reader (Molecular Devices, Menlo Park, Calif.). Readings were taken automatically for 10 min at 10 s intervals. The rate (mOD min^−1) was calculated by the integrated software, Softmax Pro 4.6. All treatments were performed in triplicate.
# No added esterase is giving 0% esterase protection and uninhibited esterase (E4) is giving 100% protection.
# The materials and procedure as stated in Example 13, paragraphs 13.1, 13.1.2, 13.1.2.1 and 13.1.2.2. have been used and the following results have been obtained: […]
smiles,measurement,setting,value
"CC#CCOc1ccc2c(c1)OCO2 [Example 2, 5-(but-2-ynyloxy)-benzo[1.3]dioxole]",Inhibition of 7-ethoxycoumarin O-deethylation (%),[1]; Lebork homogenate,−38.98%
same,Inhibition of 7-ethoxycoumarin O-deethylation (%),[1]; Rogalin homogenate,−11.25%
same,Inhibition of 7-ethoxycoumarin O-deethylation (%),[1]; UK population homogenate,−9.3%
same,% Mortality,"[2]; Lebork, 0.3 ppm α-cypermethrin in mixture with 0.01 g L^−1 synergist",85.21%
same,Mortality,"[2]; Rogalin and Lebork, 0.3 ppm α-cypermethrin in mixture with 0.01 g L^−1 synergist",around 85%
same,% Mortality,"[2]; Rogalin, 0.3 ppm α-cypermethrin in mixture with 0.01 g L^−1 synergist",80.56%
same,% Mortality,"[2]; UK population, 0.03 ppm α-cypermethrin in mixture with 0.01 g L^−1 synergist",71.68%
same,Mortality with the compound only,"[2]; synergist only, without α-cypermethrin (data not shown)",No mortality
same,Esterase protection (%) after pre-incubation with compound,"[3]; Table 2 (Example 13), 0.03 mM compound pre-incubated with E4 16 h at 4° C.",10.36%
same,Esterase protection (%) after pre-incubation with compound,"[3]; second 'TABLE 3' (Example 16), procedure as Example 13",10.35%
